Laboratory results: patent US7378497B2, “Potassium channels and genes encoding these potassium channels” (NeuroSearch A/S, priority 1999, dated 2008)

Legend:
KCNQ4 = biological target: T1, KCNQ4 (Homo sapiens, UniProt P56696, H455Q); assay: Two-electrode voltage clamp of KCNQ4 currents in Xenopus oocytes; assay type: cell-based; conditions: 200 μM Linopirdine
T1 construct: A complete cDNA was assembled and cloned into the oocyte expression vector PTLN; expressed in transfected cells; host or cells: Xenopus oocytes (cRNA injection)
T1 sequence (P56696 1-695 H455Q): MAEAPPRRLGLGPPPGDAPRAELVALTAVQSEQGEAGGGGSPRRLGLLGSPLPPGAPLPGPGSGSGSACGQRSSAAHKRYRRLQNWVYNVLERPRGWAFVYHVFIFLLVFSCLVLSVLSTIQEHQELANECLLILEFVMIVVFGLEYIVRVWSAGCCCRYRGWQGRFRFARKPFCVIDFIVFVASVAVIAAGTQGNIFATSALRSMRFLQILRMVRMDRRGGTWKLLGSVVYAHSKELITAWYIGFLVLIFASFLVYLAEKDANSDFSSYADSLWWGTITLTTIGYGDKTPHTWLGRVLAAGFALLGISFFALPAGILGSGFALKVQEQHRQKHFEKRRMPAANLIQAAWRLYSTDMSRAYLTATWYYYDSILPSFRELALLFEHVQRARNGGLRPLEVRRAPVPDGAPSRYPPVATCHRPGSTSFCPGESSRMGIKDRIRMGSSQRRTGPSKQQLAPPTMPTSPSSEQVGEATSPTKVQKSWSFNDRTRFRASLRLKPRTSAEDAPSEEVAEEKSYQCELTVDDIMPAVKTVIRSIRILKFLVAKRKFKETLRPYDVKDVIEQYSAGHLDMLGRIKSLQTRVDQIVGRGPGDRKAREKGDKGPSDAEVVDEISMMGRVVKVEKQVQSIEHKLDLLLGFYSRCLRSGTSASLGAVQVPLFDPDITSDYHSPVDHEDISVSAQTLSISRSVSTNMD
Method: (§1) KCNQ4 was expressed in Xenopus oocytes and its activity was investigated by two-electrode voltage clamping.
(§2) After linearization of the KCNQ4-containing PTLN vector with Hpal, capped cRNA was transcribed in vitro using the mMessage mMachine cRNA synthesis kit (Ambion). Usually 5-15 ng of cRNA were injected into Xenopus oocytes previously isolated by manual defolliculation and short collagenase treatment. In co-expression experiments cRNAs were injected at a 1:1 ratio. Oocytes were kept at 17° C. in modified Barth's solution (90 mM NaCl, 1 mM KCl, 0.41 mM CaCl2, 0.33 mM Ca(NO3)2, 0.82 mM MgSO4, 10 mM HEPES, 100 U penicillin-100 μg streptomycin/ml, pH 7.6).
(§3) Standard two-electrode voltage-clamp measurements were performed at room temperature 2-4 days after injection using a Turbotec 05 amplifier (npi instruments, Tamm, Germany) and pClamp 5.5 software (Axon Instruments). Currents were usually recorded in ND98 solution (see Table 2). Solutions for Na^+/K^+replacement experiments were prepared from an appropriate mixture of solution KD100 (100 mM KCl) and ND100 (100 mM NaCl) to yield the stated concentrations of Na^+and K^+. Linopirdine (RBI, Natick, Mass.) was prepared as a 100 mM stock solution in DMSO and added to a final concentration of 200 μM to ND98.

KCNQ3/KCNQ4 = biological target: T2, KCNQ3/KCNQ4 (Homo sapiens, UniProt O43525+P56696, H455Q); assay: Two-electrode voltage clamp of KCNQ3+KCNQ4 co-expression currents in Xenopus oocytes; assay type: cell-based; conditions: 200 μM Linopirdine
T2 construct: A complete cDNA was assembled and cloned into the oocyte expression vector PTLN; expressed in transfected cells; host or cells: Xenopus oocytes (cRNAs co-injected 1:1)
T2 sequence (P56696 1-695 H455Q): T1 sequence (P56696 1-695 H455Q)
T2 sequence (O43525 1-872): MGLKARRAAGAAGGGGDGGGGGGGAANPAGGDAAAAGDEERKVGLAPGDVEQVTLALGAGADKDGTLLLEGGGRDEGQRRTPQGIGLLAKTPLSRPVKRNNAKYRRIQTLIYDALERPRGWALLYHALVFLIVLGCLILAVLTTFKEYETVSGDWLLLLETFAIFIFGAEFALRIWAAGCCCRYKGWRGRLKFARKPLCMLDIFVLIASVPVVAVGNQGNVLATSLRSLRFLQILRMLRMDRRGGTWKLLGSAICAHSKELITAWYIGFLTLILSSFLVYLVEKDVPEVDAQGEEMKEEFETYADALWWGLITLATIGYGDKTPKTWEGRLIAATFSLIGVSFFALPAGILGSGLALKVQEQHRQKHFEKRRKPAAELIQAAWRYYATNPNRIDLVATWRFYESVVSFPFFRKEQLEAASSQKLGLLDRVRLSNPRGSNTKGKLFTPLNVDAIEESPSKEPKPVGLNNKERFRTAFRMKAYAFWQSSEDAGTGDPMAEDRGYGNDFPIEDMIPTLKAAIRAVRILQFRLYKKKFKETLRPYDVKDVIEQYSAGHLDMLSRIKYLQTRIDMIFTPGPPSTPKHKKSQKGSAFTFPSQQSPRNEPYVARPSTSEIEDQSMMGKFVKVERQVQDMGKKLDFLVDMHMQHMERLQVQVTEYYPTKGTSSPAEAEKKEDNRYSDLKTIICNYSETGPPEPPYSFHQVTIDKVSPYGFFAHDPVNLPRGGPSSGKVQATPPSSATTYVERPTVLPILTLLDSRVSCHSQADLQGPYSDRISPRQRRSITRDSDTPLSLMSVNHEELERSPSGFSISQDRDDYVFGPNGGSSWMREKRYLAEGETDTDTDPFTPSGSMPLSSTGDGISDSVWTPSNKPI
Method: as §1, §2, §3

KCNQ2/KCNQ3 channels = KCNQ2/KCNQ3 channels (Homo sapiens, UniProt O43525+O43526, N780T); conditions: 200 μM Linopirdine; cited from earlier work
Sequence of KCNQ2/KCNQ3 channels (O43526 1-844 isoform O43526-3 N752T, one chain of several): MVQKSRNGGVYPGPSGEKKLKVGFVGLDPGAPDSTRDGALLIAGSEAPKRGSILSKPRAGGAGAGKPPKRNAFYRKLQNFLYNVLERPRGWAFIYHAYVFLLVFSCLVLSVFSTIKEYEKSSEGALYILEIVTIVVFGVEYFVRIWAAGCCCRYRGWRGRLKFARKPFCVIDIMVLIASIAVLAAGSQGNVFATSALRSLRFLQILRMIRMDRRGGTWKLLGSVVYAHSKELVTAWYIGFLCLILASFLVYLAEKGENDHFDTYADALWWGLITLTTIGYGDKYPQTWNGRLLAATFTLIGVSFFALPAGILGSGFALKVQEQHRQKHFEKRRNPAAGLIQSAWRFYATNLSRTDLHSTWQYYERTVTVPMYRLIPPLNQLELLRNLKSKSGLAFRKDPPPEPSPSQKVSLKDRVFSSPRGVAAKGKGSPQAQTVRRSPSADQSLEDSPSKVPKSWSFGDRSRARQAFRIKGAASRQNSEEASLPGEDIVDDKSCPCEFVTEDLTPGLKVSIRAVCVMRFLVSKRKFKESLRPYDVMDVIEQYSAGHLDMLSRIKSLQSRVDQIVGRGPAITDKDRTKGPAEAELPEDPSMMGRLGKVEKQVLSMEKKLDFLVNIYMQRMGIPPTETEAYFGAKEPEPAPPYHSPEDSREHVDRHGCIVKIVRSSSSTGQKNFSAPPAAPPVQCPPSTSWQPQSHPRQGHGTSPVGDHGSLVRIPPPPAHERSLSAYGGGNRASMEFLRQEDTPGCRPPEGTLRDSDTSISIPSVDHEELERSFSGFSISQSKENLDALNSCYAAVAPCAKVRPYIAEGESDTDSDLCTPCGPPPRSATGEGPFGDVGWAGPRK

Compound: O=C1N(c2ccccc2)c2ccccc2C1(Cc1ccncc1)Cc1ccncc1 [Linopirdine, 1,3-dihydro-1-phenyl-3,3-bis(4-pyridylmethyl)-2H-indol-2-one]
- time to steady-state inhibition of KCNQ4 currents after addition (KCNQ4): ~1 min
- inhibition at 200 µM (KCNQ4; currents measured at +40 mV, Xenopus oocytes, ND98, read-out: inhibition of KCNQ4 current): ~30%
- time to steady-state inhibition of KCNQ3+KCNQ4 currents after addition (KCNQ3/KCNQ4): ~3 min
- inhibition of KCNQ3/KCNQ4 co-expression current (KCNQ3/KCNQ4; currents measured at +40 mV, Xenopus oocytes, ND98): ≈ 75%
- inhibition of KCNQ2/KCNQ3 channels (KCNQ2/KCNQ3 channels): nearly completely inhibits
